For 17 compounds, melting point results are on record in patent publication US6900244B2, “Anilino liver X-receptor modulators” (Pharmacia Corporation, priority 2002, dated 2005).

On to `CCOC(=O)C1(Nc2ccc(C(O)(C(F)(F)F)C(F)(F)F)cc2)CCC(C(C)(C)C)CC1` (centres unmarked) [Example 49, Ethyl 4-tert-butyl-1-({4-[2,2,2-trifluoro-1-hydroxy-1-(trifluoromethyl)ethyl]phenyl}amino)cyclohexanecarboxylate], for which the melting point came out at 107 °C.

`CCOC(=O)CCN(C)c1ccc(C(O)(C(F)(F)F)C(F)(F)F)cc1` [Example 14, Ethyl N-methyl-N-{4-[2,2,2-trifluoro-1-hydroxy-1-(trifluoromethyl)ethyl]phenyl}-beta-alaninate] registered a melting point of 77 °C.

As for `CCOC(=O)CN(Cc1cccc(Cl)c1)c1ccc(C(O)(C(F)(F)F)C(F)(F)F)cc1` [Example 41, Ethyl N-(3-chlorobenzyl)-N-{4-[2,2,2-trifluoro-1-hydroxy-1-(trifluoromethyl)ethyl]phenyl}glycinate], the melting point is 81.5 °C.

`CCOC(=O)CN(CC(F)(F)F)c1ccc(C(O)(C(F)(F)F)C(F)(F)F)cc1` [Example 5, Ethyl N-(2,2,2-trifluoroethyl)-N-{4-[2,2,2-trifluoro-1-hydroxy-1-(trifluoromethyl)-ethyl]phenyl}glycinate]: the melting point is 67 °C.

Consider `CON(C)C(=O)CN(C)c1ccc(C(O)(C(F)(F)F)C(F)(F)F)cc1` [Example 32, N˜1˜-Methoxy-N˜1˜N˜2˜-dimethyl-N˜2˜-{4-[2,2,2-trifluoro-1-hydroxy-1-(trifluoromethyl)ethyl]phenyl}glycinamide], for which the melting point was determined as 121 °C.

On to `CCOC(=O)C(C)(C)Nc1ccc(C(O)(C(F)(F)F)C(F)(F)F)cc1` [Example 3, Ethyl 2-methyl-N-{4-[2,2,2-trifluoro-1-hydroxy-1-(trifluoromethyl)ethyl]phenyl}-alaninate], for which the melting point was 93 °C.

With `CN(CC(=O)OCc1ccc(Cl)cc1)c1ccc(C(O)(C(F)(F)F)C(F)(F)F)cc1` [Example 35, 4-Chlorobenzyl N-methyl-N-{4-[2,2,2-trifluoro-1-hydroxy-1-(trifluoromethyl)-ethyl]phenyl}glycinate], the melting point turned out to be 66.5 °C.

In the case of `CCOC(=O)CC(C)Nc1ccc(C(O)(C(F)(F)F)C(F)(F)F)cc1` (centres unmarked) [Example 1, Ethyl 3-({4-[2,2,2-trifluoro-1-hydroxy-1-(trifluoromethyl)ethyl]phenyl}amino)-butanoate], the melting point came out at 103 °C.

`CCOC(=O)CN(Cc1ccccc1)c1ccc(C(O)(C(F)(F)F)C(F)(F)F)cc1` [Example 19, Ethyl N-benzyl-N-{4-[2,2,2-trifluoro-1-hydroxy-1-(trifluoromethyl)ethyl]-phenyl}glycinate] registered a melting point of 116 °C.

`CCOC(=O)CN(Cc1cccnc1)c1ccc(C(O)(C(F)(F)F)C(F)(F)F)cc1` [Example 22, Ethyl N-(pyridin-3-ylmethyl)-N-{4-[2,2,2-trifluoro-1-hydroxy-1-(trifluoromethyl)ethyl]phenyl}glycinate]: the melting point worked out at 55 °C.

The compound `CCOC(=O)CN(Cc1ccc(OC)cc1)c1ccc(C(O)(C(F)(F)F)C(F)(F)F)cc1` [Example 43, Ethyl N-(4-methoxybenzyl)-N-{4-[2,2,2-trifluoro-1-hydroxy-1-(trifluoromethyl)ethyl]phenyl}glycinate] showed a melting point of 68 °C.

`CCOC(=O)CN1CCCc2cc(C(O)(C(F)(F)F)C(F)(F)F)ccc21` [Example 31, Ethyl [6-[2,2,2-trifluoro-1-hydroxy-1-(trifluoromethyl)ethyl]-3,4-dihydroquinolin-1(2H)-yl]acetate] had a melting point of 66.5 °C.

Take `CCOC(=O)C1(Nc2ccc(C(O)(C(F)(F)F)C(F)(F)F)cc2)CCC(C)CC1` (centres unmarked) [Example 50, Ehyl 4-methyl-1-({4-[2,2,2-trifluoro-1-hydroxy-1-(trifluoromethyl)ethyl]phenyl}amino)cyclohexanecarboxylate]: the melting point was 142.6 °C.

Compound `CN(CC(=O)N1CCOCC1)c1ccc(C(O)(C(F)(F)F)C(F)(F)F)cc1` [Example 38] registered a melting point of 149 °C.

`CCOC(=O)CN(Cc1ccc(Cl)cc1Cl)c1ccc(C(O)(C(F)(F)F)C(F)(F)F)cc1` [Example 40, Ethyl N-(2,4-dichlorobenzyl)-N-{4-[2,2,2-trifluoro-1-hydroxy-1-(trifluoromethyl)ethyl]phenyl}glycinate]: the melting point is 111 °C.

Consider `CN(CC(=O)N1CCCC1)c1ccc(C(O)(C(F)(F)F)C(F)(F)F)cc1` [Example 39], for which the melting point was 184 °C.

As to `CCOC(=O)CN(Cc1ccccc1Cl)c1ccc(C(O)(C(F)(F)F)C(F)(F)F)cc1` [Example 21, Ethyl N-(2-chlorobenzyl)-N-{4-[2,2,2-trifluoro-1-hydroxy-1-(trifluoromethyl)ethyl]phenyl}glycinate], the melting point worked out at 146 °C.
